Like-named read-outs stand apart in the source and are kept apart here. Each block holds one compound with its values, some of them ahead of it.
Experiments:
[1] = system: human left internal mammary artery (LIMA); assay: Vascular ring physiology, isolated human left internal mammary artery rings; settings: for effect of pretreatment on MA-induced relaxation: L-NAME 200 μmol/L and/or INDO 100 μmol/L; for response in HI K+-precontracted LIMA, % of HI K+ tension (contraction): n=9,3,6; for EC50: Homo sapiens; for % Response, contraction (C), LIMA / % Response, relaxation (R), LIMA: NE-precontracted (1 μM) LIMA, 10 min exposure to 1 mmol/L, percentage change of NE-precontraction tension
[2] = target: homogenized rat aortic SSAO activity (Rattus norvegicus, UniProt O08590); settings: read-out: Km for homogenized rat aortic SSAO activity; cited from earlier work
homogenized rat aortic SSAO activity, sequence (O08590 whole entry): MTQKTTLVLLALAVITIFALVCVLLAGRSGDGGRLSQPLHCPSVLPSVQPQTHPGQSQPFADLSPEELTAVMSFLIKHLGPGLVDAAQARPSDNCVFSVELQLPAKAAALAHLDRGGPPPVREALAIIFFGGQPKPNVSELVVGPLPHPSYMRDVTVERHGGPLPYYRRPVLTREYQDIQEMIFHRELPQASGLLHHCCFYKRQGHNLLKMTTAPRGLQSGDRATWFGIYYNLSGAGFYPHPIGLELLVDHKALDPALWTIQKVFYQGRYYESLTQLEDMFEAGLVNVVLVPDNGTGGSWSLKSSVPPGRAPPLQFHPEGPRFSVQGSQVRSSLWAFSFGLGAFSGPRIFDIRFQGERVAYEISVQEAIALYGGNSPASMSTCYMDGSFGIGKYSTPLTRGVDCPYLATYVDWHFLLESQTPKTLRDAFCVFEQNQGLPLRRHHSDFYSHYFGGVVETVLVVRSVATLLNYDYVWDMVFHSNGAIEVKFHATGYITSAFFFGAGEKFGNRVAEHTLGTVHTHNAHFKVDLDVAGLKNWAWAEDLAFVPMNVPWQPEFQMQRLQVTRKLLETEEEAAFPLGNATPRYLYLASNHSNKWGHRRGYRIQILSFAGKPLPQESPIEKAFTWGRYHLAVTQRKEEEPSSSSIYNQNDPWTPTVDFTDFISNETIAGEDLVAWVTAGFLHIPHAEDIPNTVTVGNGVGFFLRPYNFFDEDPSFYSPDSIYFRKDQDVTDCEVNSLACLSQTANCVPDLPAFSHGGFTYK

[3] = system: human left internal mammary artery (LIMA)
human radial artery (RA) = assay: Vascular ring physiology, isolated human radial artery rings
humans = settings: cited from earlier work
[4] = target: SSAO of human umbilical artery (Homo sapiens, UniProt Q16853); settings: read-out: Km, human umbilical artery; cited from earlier work
[5] = target: SSAO of human cerebral microvessels (Homo sapiens, UniProt Q16853); settings: read-out: Km, human cerebral microvessels; cited from earlier work
cGMP level in human LIMA = assay: cGMP ELISA assay in LIMA segments; settings: NE-precontracted LIMA, MA 1 mmol/L, 30-40 min, control 0.128 ± 0.034
[6] = target: T1, SSAO activity in homogenized human RSV (Homo sapiens, UniProt Q16853); assay: Radiometric SSAO assay (14C-benzylamine), homogenized RSV; assay type: biochemical; settings: homogenate preincubated 20 min, 37° C.; n=5
T1 sequence (Q16853 1-763): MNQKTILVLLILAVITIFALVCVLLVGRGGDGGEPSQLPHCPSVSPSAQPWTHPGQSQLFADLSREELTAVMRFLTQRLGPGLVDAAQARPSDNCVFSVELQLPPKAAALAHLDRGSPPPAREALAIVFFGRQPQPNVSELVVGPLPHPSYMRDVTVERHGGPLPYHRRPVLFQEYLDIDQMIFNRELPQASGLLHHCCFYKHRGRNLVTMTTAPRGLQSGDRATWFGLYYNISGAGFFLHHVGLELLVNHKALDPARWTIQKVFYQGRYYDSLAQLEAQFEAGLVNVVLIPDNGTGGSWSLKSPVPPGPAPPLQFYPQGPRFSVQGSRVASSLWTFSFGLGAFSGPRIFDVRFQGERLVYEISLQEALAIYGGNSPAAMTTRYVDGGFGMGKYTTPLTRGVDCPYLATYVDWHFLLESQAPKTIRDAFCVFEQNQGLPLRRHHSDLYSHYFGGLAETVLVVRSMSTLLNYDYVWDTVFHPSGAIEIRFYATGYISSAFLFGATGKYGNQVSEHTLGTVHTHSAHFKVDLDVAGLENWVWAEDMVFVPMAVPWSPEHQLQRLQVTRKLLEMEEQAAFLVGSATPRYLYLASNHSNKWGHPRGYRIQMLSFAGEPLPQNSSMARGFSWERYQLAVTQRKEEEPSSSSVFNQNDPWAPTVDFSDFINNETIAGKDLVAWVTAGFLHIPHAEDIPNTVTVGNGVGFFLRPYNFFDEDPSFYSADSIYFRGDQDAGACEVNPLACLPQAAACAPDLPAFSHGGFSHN

[7] = target: T2, SSAO activity in homogenized human LIMA (Homo sapiens, UniProt Q16853); assay: Radiometric SSAO assay (14C-benzylamine), homogenized LIMA; assay type: biochemical; settings: homogenate preincubated 20 min, 37° C.; n=25
T2 construct: Blood vessel segments were homogenized in Sorensen's Na^+/K^+-phosphate buffered solution; from tissue; host or cells: human left internal mammary artery (LIMA), supernatant of homogenate
T2 sequence (Q16853 1-763): T1 sequence (Q16853 1-763)

[8] = target: T3, SSAO activity in homogenized human RA (Homo sapiens, UniProt Q16853); assay: Radiometric SSAO assay (14C-benzylamine), homogenized RA; assay type: biochemical; settings: homogenate preincubated 20 min, 37° C.; n=10
T3 construct: Blood vessel segments were homogenized in Sorensen's Na^+/K^+-phosphate buffered solution; from tissue; host or cells: human radial artery (RA), supernatant of homogenate
T3 sequence (Q16853 1-763): T1 sequence (Q16853 1-763)

[9] = target: T4, SSAO in human saphenous vein (Homo sapiens, UniProt Q16853); settings: read-out: IC50 of SSAO inhibition in human saphenous vein, literature; cited from earlier work
T4 sequence (Q16853 1-763): T1 sequence (Q16853 1-763)

[10] = read-out: Apparent EC50, relaxation (R), LIMA
[11] = NE-precontracted LIMA, repeated methylamine exposure, n=5
[12] = read-out: Apparent EC50, contraction (C), LIMA

SMILES: COC(=O)[C@@H](N)CCCNC(=N)N[N+](=O)[O-] [L-NAME, N^ω-nitro-L-arginine methyl ester]
effect of pretreatment on ACh-induced relaxation ([1]; L-NAME 200 μmol/L, 20 min, subset of LIMA rings with relatively strong ACh relaxation): significantly inhibited the ACh-induced relaxation
effect of pretreatment on MA-induced relaxation ([1]; NE-precontracted LIMA, 20 min): had no effect on MA-induced relaxation

SMILES: C=CCN [allylamine, reference compound]
Km [2]: 145 µM

SMILES: COc1ccc2c(c1)c(CC(=O)O)c(C)n2C(=O)c1ccc(Cl)cc1 [INDO, indomethacin]
effect of pretreatment on MA-induced relaxation ([1]; NE-precontracted LIMA, 20 min): neither INDO alone (100 μmol/L; 20 min) nor L-NAME+INDO pretreatment affected the MA-induced relaxation

mean relaxation half time (t1/2), NE-precontracted LIMA [3]: 1.07 ± 0.122 min
SMILES: CC(=O)OCC[N+](C)(C)C [ACh, acetylcholine]
ACh-induced relaxation, ACh added after MA (post-MA ACh) ([1]; NE-precontracted LIMA, ACh 1 μmol/L, n=20, mean ± SE): 14±6%
ACh-induced relaxation, ACh added before MA (pre-MA ACh) ([1]; NE-precontracted LIMA, ACh 1 μmol/L, n=21, mean ± SE): 25±6%

SMILES: CN [methylamine]
EC50 (human radial artery (RA); read-out: Apparent EC50, contraction (C), RA): 65 ± 48 µM
EC50 (human radial artery (RA); read-out: Apparent EC50, relaxation (R), RA): 280 ± 40 µM
Km [2]: 247 µM
[cGMP], RSV (cGMP level in human RSV): 0.109 ± 0.030 pmol/mg
fatalities after accidental exposure (humans; 35 persons hospitalized 7-8 hours post-exposure to spilled purified liquid methylamine): 6
persons with light to deep coma after accidental exposure (humans; of 35 people): 10 of 35
response in HI K+-precontracted LIMA, % of HI K+ tension (contraction) ([1]; 1 mmol/L, 10 min, mean ± SE): 1.7±3.9%
EC50 [1, 10]: 230 ± 30 µM
ACh relaxation after prior exposure, percentage reduction in HI K+ contraction ([1]; LIMA n=7, ACh 1 μM after methylamine 1 mM 10 min (± SEMI 1 mM 15 min) and three PSS bath changes): 20 ± 11%
HI K+ contraction after prior exposure, percentage of control norepinephrine contraction ([1]; LIMA n=7, HI K+ 100 mM after methylamine 1 mM 10 min (± SEMI 1 mM 15 min) and three PSS bath changes): 102 ± 23%
SNP relaxation after prior exposure, percentage reduction in HI K+ contraction ([1]; LIMA n=7, SNP 100 μM after methylamine 1 mM 10 min (± SEMI 1 mM 15 min) and three PSS bath changes): 90 ± 11%
methylamine relaxation relative to ACh-induced relaxation ([1]; LIMA, on average, regardless of order of addition): > 2 times
% Response, contraction (C), LIMA ([1]; mean ± SE): 0.6 ± 0.3%
% Response, relaxation (R), LIMA ([1]; mean ± SE): 55.4 ± 3.9%
% relaxation, 3rd relaxation ([1]; NE-precontracted LIMA, repeated methylamine exposure, n=1): 82.1%
% relaxation, 1st relaxation [1, 11]: 72.0±7.5%
% relaxation, 2nd relaxation [1, 11]: 60.8±12.6%
% reduction of NE-contraction, methylamine post-NE ([1]; NE-precontracted LIMA, 1 mmol/L, 10 min, n=9, mean ± SE): 61±5%
% Relaxation, LIMA, <50% relaxation subgroup ([1]; NE-precontracted LIMA, MA 1 mmol/L, 30-40 min, vessels with <50% relaxation (n=3)): 34.1 ± 7.1%
% Relaxation, LIMA, >50% relaxation subgroup ([1]; NE-precontracted LIMA, MA 1 mmol/L, 30-40 min, vessels with >50% relaxation (n=6)): 87.8 ± 5.0%
Apparent EC50, contraction (C), LIMA ([1]; cumulative concentrations 1-1000 μM, uncontracted and NE-precontracted vessels pooled, mean ± SE): not observed
% reduction of NE-contraction, methylamine pre-NE ([1]; unstimulated LIMA exposed to 1 mmol/L, 10 min, before NE, n=5, mean ± SE): 53±7%
Km [4]: 832 µM
Km [5]: 22 µM
[cGMP], LIMA, <50% relaxation subgroup (cGMP level in human LIMA; vessels with <50% relaxation (n=3)): 0.067 ± 0.029 pmol/mg
[cGMP], LIMA, >50% relaxation subgroup (cGMP level in human LIMA; vessels with >50% relaxation (n=6)): 0.227 ± 0.066 pmol/mg

SMILES: NNC(N)=O [semicarbazide]
IC50 [6]: 14.7 µM
IC50 [7]: 16.7 ± 19.5 µM
IC50 [8]: 21.2 ± 11.2 µM
mean % reversal of methylamine-induced relaxation ([1]; NE-precontracted LIMA, within 10 min of addition of 1 mmol/L semicarbazide, n=2): 63.0±15.8%
effect of pretreatment on methylamine-induced relaxation in LIMA ([1]; semicarbazide pretreatment 1 mmol/L, 15 min, no effect on NE contraction or ACh relaxation): significantly reduced the methylamine-induced relaxation
IC50 [9]: 500 µM

EC50 [1, 12]: 175 ± 58 µM
EC50 [1, 10]: 162 ± 41 µM
SMILES: OO [H2O2, hydrogen peroxide]
response in HI K+-precontracted LIMA, % of HI K+ tension (contraction) ([1]; 1 mmol/L, 10 min, mean ± SE): 21.1±7.7%
% Response, contraction (C), LIMA ([1]; mean ± SE): 15.8 ± 5.3%
% Response, relaxation (R), LIMA ([1]; mean ± SE): 55.6 ± 9.0%

SMILES: C=O [Formaldehyde, formaldehyde]
response in HI K+-precontracted LIMA, % of HI K+ tension (contraction) ([1]; 1 mmol/L, 10 min, mean ± SE): 12.9±2.4%
EC50 [1, 12]: 315 µM
EC50 [1, 10]: 315 µM
% Response, contraction (C), LIMA ([1]; mean ± SE): 3.7 ± 3.7%
% Response, relaxation (R), LIMA ([1]; mean ± SE): 37.3 ± 18.6%

Source: patent US20050180956A1, “SSAO enzyme substrates for vasorelaxation, and methods of use thereof” (priority 2004, published 2005)
